Measured values published in BindingDB's records for doi:10.1016/s0960-894x(99)00097-9 (University of Minnesota, 1999).

Target: Lactoylglutathione lyase (Saccharomyces cerevisiae)
Experiment: Ability to inhibit yeast glyoxalase I enzyme in 0.05 M phosphate buffer, pH 6.6, 30 degree C

Ki: 15.5 µM
Compound: NC(CNC(=O)NC(CSCc1ccc(Br)cc1)C(=O)NCC(=O)O)C(=O)O (stereo unspecified) [2-Amino-3-{3-[2-(4-bromo-benzylsulfanyl)-1-(carboxymethyl-carbamoyl)-ethyl]-ureido}-propionic acid]
